From PubChem BioAssay (NCI)
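Assay format: 96-well plates, 48-hour exposure. GI50 is the concentration that inhibits growth by half. TGI denotes the concentration required for complete inhibition of growth.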

Legend:
Experiment in all cases: NCI-60 cell line screen, 48 h
HCC-2998 colon = system: HCC-2998 colon
ACHN renal = system: ACHN renal
HOP-62 NSCLC = system: HOP-62 NSCLC
NCI-H522 lung = system: NCI-H522 lung
HL-60(TB) leukemia = system: HL-60(TB) leukemia
HOP-92 NSCLC = system: HOP-92 NSCLC
U251 CNS = system: U251 CNS
MCF7 breast = system: MCF7 breast
PC-3 prostate = system: PC-3 prostate

Compound	TGI (HCC-2998 colon) [µM]	TGI (ACHN renal) [µM]	TGI (HOP-62 NSCLC) [µM]	TGI (NCI-H522 lung) [µM]	TGI (HL-60(TB) leukemia) [µM]	TGI (HOP-92 NSCLC) [µM]	GI50 (HCC-2998 colon) [µM]	GI50 (U251 CNS) [µM]	TGI (U251 CNS) [µM]	GI50 (ACHN renal) [µM]	GI50 (HOP-62 NSCLC) [µM]	GI50 (NCI-H522 lung) [µM]	GI50 (HL-60(TB) leukemia) [µM]	GI50 (HOP-92 NSCLC) [µM]	GI50 (MCF7 breast) [µM]	TGI (MCF7 breast) [µM]	GI50 (PC-3 prostate) [µM]	TGI (PC-3 prostate) [µM]
COC(=O)C(=O)C(C#N)c1nc2ccccc2s1 (configuration not stated)	> 100	> 100	> 100	> 100	> 100	> 100	–	–	–	–	–	–	–	–	–	–	–	–
CN(C)CCC(N)(P(=O)([O-])[O-])P(=O)([O-])[O-].N.N.[Pt+2]	> 100	> 100	> 100	> 100	> 100	> 100	> 100	> 100	> 100	> 100	> 100	> 100	> 100	> 100	–	–	–	–
Cc1c(C(Cc2ccccc2N(C)C(=O)/C=C\C(=O)O)c2c[nH]c3ccccc23)c2ccccc2n1C (configuration not stated)	30.9	34.3	32.5	28.6	23.9	–	–	–	30.3	–	–	–	–	–	–	–	–	–
O=C1NN2CC(c3ccccc3)=NN=C2c2ccccc21	36.2	> 100	> 100	77.1	56.8	–	15.6	18	33.9	36.9	35	34.7	19.9	–	15.8	37.2	12.6	33.8
Cc1cc(N(CCC#N)CCC#N)ccc1/C=C(\NC(=O)/C=C/c1ccccc1)C(=O)N=[N+]=[N-]	> 100	> 100	> 100	> 100	> 100	–	–	–	> 100	–	–	–	–	–	–	–	–	–
CCN(CC)CC(=O)NC1c2ccccc2Oc2ccccc21	> 100	–	> 100	–	> 100	–	–	–	> 100	–	–	–	–	–	–	–	–	–
CC(C)(CN1CCCCC1)C(=O)/C=C/c1ccccc1	27.9	96.6	61.3	26.8	–	–	–	–	57	–	–	–	–	–	–	–	–	–
O=C(/C=C/c1ccccc1)NC1C=Nc2ccc([N+](=O)[O-])cc2NC1=O (configuration not stated)	> 100	> 100	> 100	> 100	> 100	> 100	–	–	> 100	–	–	–	–	–	–	–	–	–
CN(C)CC1CC/C(=C\c2ccc(Cl)c(Cl)c2)C1=O (configuration not stated)	> 58.5	> 62.5	> 95.1	17.7	4.68	48.2	–	–	> 56.5	–	–	–	–	–	–	–	–	–
CC(=O)N1C/C(=C\c2ccccc2)C(=O)/C(=C/c2ccccc2)C1	25	32.4	39	27.9	4.06	–	–	–	29.7	–	–	–	–	–	–	–	–	–
O=C(CCc1n[nH]c(=S)o1)Nc1cc(Cl)ccc1Cl	> 100	> 100	> 100	–	78.9	> 100	–	–	> 100	–	–	–	–	–	–	–	–	–
NC(N)NCCCc1cn2c(n1)C1CCCN1C(=O)C2Cc1ccccc1 (configuration not stated)	> 100	> 100	> 100	> 100	–	–	–	–	> 100	–	–	–	–	–	–	–	–	–
N#CC(C(=O)CCCC(=O)Nc1ccccc1[N+](=O)[O-])c1c(Cl)cccc1Cl (configuration not stated)	> 100	> 100	> 100	> 100	> 100	> 100	–	–	> 100	–	–	–	–	–	–	–	–	–
CC(=O)C1(O)CC2(c3ccccc3)C(=O)C1(c1ccccc1)C(c1ccccc1)=C2c1ccccc1 (configuration not stated)	–	–	> 100	> 100	> 100	> 100	–	–	> 100	–	–	–	–	–	–	–	–	–
O=C1C2C3CC4C5C3C1C5C1(SCCS1)C42 (configuration not stated)	> 100	> 100	> 100	> 100	> 100	–	–	–	> 100	–	–	–	–	–	–	–	–	–
O=C(O)/C=C/c1ccc(O)c(O)c1	> 100	> 100	> 100	> 100	> 100	> 100	–	–	> 100	–	–	–	–	–	–	–	–	> 100
O=S1OC(c2ccccc2)(c2ccccc2)C(c2ccccc2)(c2ccccc2)O1	> 100	> 100	> 100	> 100	> 100	> 100	–	–	> 100	–	–	–	–	–	–	–	–	–
NC1=C(O)c2cccc3cccc(c23)C1=O	> 100	> 100	–	> 100	> 100	> 100	–	–	> 100	–	–	–	–	–	–	–	–	–
Cc1ccc(S(=O)c2ccccc2[N+](=O)[O-])cc1 (configuration not stated)	> 100	> 100	> 100	> 100	> 100	> 100	–	–	> 100	–	–	–	–	–	–	–	–	–
COc1ccc(C(=O)C(C(=O)CCC(=O)Nc2ccc(Cl)c(Cl)c2)c2ccc(OC)cc2)cc1 (configuration not stated)	> 100	> 100	> 100	> 100	> 100	> 100	–	–	> 100	–	–	–	–	–	–	–	–	–
C/C(CN1C(=O)c2ccccc2C1=O)=N\NS(=O)(=O)c1ccc2ccccc2c1	> 100	> 100	> 100	> 100	> 100	–	–	–	> 100	–	–	–	–	–	–	–	–	–
